Source: patent publication US9371527B2, “Compositions and methods related to protein displacement therapy for myotonic distrophy” (University of Rochester, priority 2006, dated 2016)

Experiments:
[1] = test system: Mbnl1^ΔE3/ΔE3 mice; assay: Electromyography of myotonia, Mbnl1^ΔE3/ΔE3 mice; type: in vivo; conditions: TA muscle, 3 weeks
Description: FIGS. 27A, 27B, 27C, 27D, and 27E show antisense morpholino represses exon 7a inclusion, restores ClC-1 protein expression, and rescues myotonia in Mbnl1^ΔE3/ΔE3 mice. […] Bar=20 μM. […] Mean±s.d.; n=3 per group; **P<0.0001 antisense- versus invert-treated control; ANOVA.
EMG was performed under general anesthesia as described previously (Kanadia, R. N., et al. (2003) Science 302:1978-1980). Images and video recordings of electromyographic myotonia in HSA^LR and Mbnl1^ΔE3/ΔE3 mice are shown in previous reports (Kanadia, R. N., et al. (2003) Science 302:1978-1980; Mankodi, A., et al. (2000) Science 289:1769-1773). A minimum of 15 needle insertions were performed for each muscle examined Myotonic discharges were graded on a 4 point scale: 0, no myotonia; 1, occasional myotonic discharge in <50% of needle insertions; 2, myotonic discharge in >50% of needle insertions; 3: myotonic discharge with nearly every insertion.

[2] = test system: ClC-1 mRNA; assay: Quantitative real time RT-PCR of ClC-1 mRNA level; type: in vivo, HSA^LR mice; conditions: 3 weeks after treatment, relative to RNA polymerase II transcription factor IIB
Text: HSA^LR and WT mice have the same (FVB) inbred strain background. […] FIGS. 25D and 25E show the percentage of ClC-1 splice products that include exon 7a is shown at 3 (D) and 8 (E) weeks following morpholino injection. Mean±s.d.; n=3 per group; **P<0.001; *P=0.035 antisense- versus invert-treated controls; t-test. […] ClC-1 mRNA level is expressed in arbitrary units relative to housekeeping gene RNA polymerase II transcription factor IIB. Mean±s.d.; n=3 per group; *P=0.06 for antisense vs invert-treated control; t-test.
RT-PCR products (22 cycles) were separated on agarose gels, stained with SYBR green II, and scanned on a laser fluorimager (Molecular Dynamics). Band intensity was quantified using ImageQuant software. Total levels of ClC-1 mRNA were determined by quantitative real-time RT-PCR (Taqman, Applied Biosystems) relative to housekeeping gene RNA polymerase II transcription factor IIB.

[3] = test system: ClC-1 channel; assay: Whole cell patch clamp of single FDB muscle fibers after morpholino injection/electroporation; type: in vivo, HSA^LR mice; conditions: for ClC-1 current density: 3-5 days after foot pad injection/electroporation; for ClC-1 deactivation kinetics: 3-5 days after injection, -100 mV
Description: Antisense morpholino targeting the 3′ splice junction of ClC-1 exon 7a was injected into foot pad muscle of HSA^LR mice under general anesthesia. Uptake into muscle fibers was enhanced by in vivo electroporation. The morpholino was tagged with fluorescein. 4 days later, individual FDB muscle fibers were isolated. […] As a control, the opposite footpad was injected with morpholino having the inverted sequence. […] The peak current density in HSA^LR mice (center panel) is much lower than in wild-type mice (left panel). However, after morpholino treatment in HSA^LR mice (right panel), the current density is restored to levels that are similar to wild-type mice. […] The antisense morpholino (closed squares) restores chloride current density to normal levels (open circles or triangles).
The dashed lines represent the zero current level. Capacitative currents recorded from each fiber are shown in the insert of each panel (scale bars: vertical, 3 nA; horizontal, 4 ms). Superimposed traces (solid lines) of normalized ClC-1 current deactivation at −100 mV in FDB fibers obtained from invert- (circles) and antisense-treated (squares) HSA^LR mice and antisense-treated WT mice (triangles) fit with a second order exponential (symbols) are shown in the insert to the left hand panel. Note that accelerated ClC-1 deactivation kinetics of FDB fibers obtained from HSA^LR mice is normalized only following treatment with antisense morpholino. […] Smooth curves through each dataset were generated using a modified Boltzmann equation (Lueck, J. D., et al. (2007) J Gen Physiol 129:79-94). […] Mean±s.e.m.; *P<0.05 invert-treated HSA^LR fibers compared to each of the other experimental conditions; t-test. […] Mean±s.d.; n=3 to 7 per group. Antisense morpholino was injected into one TA, invert morpholino was injected into the contralateral TA, and gastrocnemius muscle served as an untreated control. **P<0.0001 for antisense- vs invert-treated control; ANOVA.
Therefore, the effect of AON treatment on ClC-1 channel function was determined Hindlimb foot pads of […] WT and HSA^LR mice were injected/electroporated with carboxyfluorescein-labeled antisense or invert morpholino. Patch clamp analysis was performed three-to-five days after injection, at a time when fibers were still small enough to maintain an effective voltage clamp (Lueck, J. D., et al. (2007) J Gen Physiol 129:79-94). […] Rescue of ClC-1 activity was not due to a shift in channel activation since the voltage dependence of relative channel open probability (Po) was not different between antisense and invert-injected HSA^LR and WT fibers (FIG. 26C).
Delivery of antisense and invert morpholinos into FDB fibers was achieved by injection and electroporation of hindlimb footpads. Briefly, 12-14-day-old HSA^LR mice were anesthetized by intraperitoneal injection of 100 mg/kg ketamine, 10 mg/kg xylazine, and 3 mg/kg acepromazine. Hindlimb foot pads then were injected with bovine hyaluronidase followed 1 hour later with 20 μg (10 μl, 2 μg/μl in PBS) of antisense or invert carboxyfluorescein-labeled morpholino. Uptake of morpholinos was enhanced by electroporation (100 V/cm, 20 pulses at 1 Hz, and 20 ms per pulse) of the foot pad immediately after injection (DiFranco, M., et al. (2006) Protein Expr Purif 47:281-288). Three to five days after injection/electroporation, individual FDB muscle fibers were isolated as previously described (Lueck, J. D., et al. (2007) J Gen Physiol 129:79-94). Brightfield and fluorescence (488 nm excitation) images of single FDB fibers were acquired using a 40× (1.4 NA) objective and a TILL IMAGO QE cooled-CCD camera. […] ClC-1 currents were measured and analyzed in whole cell patch clamp experiments (Hamill, O. P., et al. (1981) Pflugers Arch 391:85-100) using an approach identical to that described in detail elsewhere (Lueck, J. D., et al. (2007) J Gen Physiol 129:79-94). ClC-1 current density (pA/pF) was calculated in order to compare data across fibers of different sizes. […]

Row | Substance | myotonia (EMG) [1] | level of ClC-1 mRNA [2] | ClC-1 current density ([3]; listed as invert morpholino) | ClC-1 current density ([3]; listed as inverted morpholino) | ClC-1 deactivation kinetics [3] | myotonia (EMG) ([1]; listed as antisense morpholino) | level of ClC-1 mRNA ([2]; listed as antisense morpholino) | ClC-1 current density ([3]; listed as antisense morpholino) | ClC-1 current density ([3]; listed as morpholino AON) | ClC-1 deactivation kinetics ([3]; listed as antisense morpholino) | ClC-1 deactivation kinetics ([3]; listed as morpholino AON) | voltage dependence of relative channel open probability (Po) ([3]; HSA^LR and WT)
1 | control morpholino: control morpholino 5′-GAAGAGACAACGTCTGGCACGGACC-3′, the 5′-3′ invert of the 3′ splice site blocker (all phosphorodiamidate morpholino (PMO)) [reference compound] | not in muscle treated with invert control | not control morpholino with inverted sequence | not different from those of untreated HSA^LR fibers | markedly reduced | not different from those of untreated HSA^LR fibers | – | – | – | – | – | – | –
2 | antisense 1: morpholino 5′-CCAGGCACGGTCTGCAACAGAGAAG-3′ targeting the 3′ splice site of ClC-1 exon 7a (all phosphorodiamidate morpholino (PMO)) | – | – | – | – | – | reduced the myotonia | increased levels of ClC-1 mRNA | restores normal chloride current density | rescued to WT values | normalized | rescued to WT values | not different
